Patent US8592455B2 (priority 2008, dated 2013)
pIC50: −log10 of the molar value.

Columns and labels:
[1] = target: Pim3 kinase (Homo sapiens (Human), UniProt Q86V86); details: read-out: Pim3 IC50
[2] = target: Pim1 kinase (Homo sapiens (Human), UniProt P11309); details: read-out: Pim1 IC50
Sequence of Pim1 kinase (P11309 whole entry): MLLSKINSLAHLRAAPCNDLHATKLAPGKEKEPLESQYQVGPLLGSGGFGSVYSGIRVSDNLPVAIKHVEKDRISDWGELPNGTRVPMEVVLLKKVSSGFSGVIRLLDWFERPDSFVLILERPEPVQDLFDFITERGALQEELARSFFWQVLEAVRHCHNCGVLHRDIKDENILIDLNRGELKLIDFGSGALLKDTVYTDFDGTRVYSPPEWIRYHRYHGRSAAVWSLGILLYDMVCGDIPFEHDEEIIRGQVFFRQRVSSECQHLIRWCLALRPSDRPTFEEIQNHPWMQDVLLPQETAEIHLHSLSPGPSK

SMILES | pIC50 [1] | pIC50 [2]
C[C@@H]1C[C@H](c2ccncc2NC(=O)c2cccc(-c3c(F)cccc3F)n2)C[C@H](N)[C@H]1O (stereo in doubt) [Example 52, N-(4-((1S,3S,4S,5R)-3-amino-4-hydroxy-5-methylcyclohexyl)pyridin-3-yl)-6-(2,6-difluorophenyl)picolinamide] | 8.70 | 9.00
C[C@H]1C[C@@H](c2ccncc2NC(=O)c2ccc(F)c(C3CCCCC3)n2)C[C@@H](N)[C@@H]1O (stereo in doubt) [Example 89, N-(4-(3-amino-4-hydroxy-5-methylcyclohexyl)pyridin-3-yl)-6-cyclohexyl-5-fluoropicolinamide] | 7.54 | 8.10
C[C@H]1C[C@@H](c2ccncc2NC(=O)c2nc(C3CCCCC3)ccc2N)C[C@@H](N)[C@@H]1O (stereo in doubt) [Example 90, 3-amino-N-(4-(3-amino-4-hydroxy-5-methylcyclohexyl)pyridin-3-yl)-6-cyclohexylpicolinamide] | 7.92 | 8.52
C[C@@H]1C[C@H](N)C[C@H](c2ccncc2NC(=O)c2ccc(F)c(C3CCCCC3)n2)C1 (stereo in doubt) [Example 91, N-(4-(3-amino-5-methylcyclohexyl)pyridin-3-yl)-6-cyclohexyl-5-fluoropicolinamide] | 7.68 | 8.52
CC(=O)O[C@H]1CC[C@@H](c2ccncc2NC(=O)c2nc(-c3c(F)cccc3F)ccc2N)C[C@H]1N (stereo in doubt) [Example 101, 2-amino-4-(3-(3-amino-6-(2,6-difluorophenyl)picolinamido)pyridin-4-yl)cyclohexyl acetate] | 8.30 | 8.70
C[C@H]1C[C@@H](c2ccncc2NC(=O)c2nc(-c3c(F)cccc3F)c(F)cc2N)C[C@@H](N)[C@@H]1O (stereo in doubt) [Example 130, 3-amino-N-(4-(3-amino-4-hydroxy-5-methylcyclohexyl)pyridin-3-yl)-6-(2,6-difluorophenyl)-5-fluoropicolinamide] | – | 8.70
Nc1cc(F)c(-c2c(F)cccc2F)nc1C(=O)Nc1cnccc1[C@@H]1CC[C@H](O)[C@H](N)C1 (stereo in doubt) [Example 131, 3-amino-N-(4-(3-amino-4-hydroxycyclohexyl)pyridin-3-yl)-6-(2,6-difluorophenyl)-5-fluoropicolinamide] | – | 8.70
C[C@H]1C[C@@H](c2ccncc2NC(=O)c2nc(-c3c(F)cccc3F)c(F)cc2N)C[C@@H](N)[C@H]1O (stereo in doubt) [Example 132, 3-amino-N-(4-(3-amino-4-hydroxy-5-methylcyclohexyl)pyridin-3-yl)-6-(2,6-difluorophenyl)-5-fluoropicolinamide] | – | 9.00
C[C@@H]1C[C@H](N)C[C@H](c2ccncc2NC(=O)c2nc(-c3c(F)cccc3F)c(F)cc2N)C1 (stereo in doubt) [Example 133, 3-amino-N-(4-(3-amino-5-methylcyclohexyl)pyridin-3-yl)-6-(2,6-difluorophenyl)-5-fluoropicolinamide] | 8.15 | 9.00
C[C@H]1C[C@@H](c2ccncc2NC(=O)c2ccc(F)c(-c3c(F)cc(O)cc3F)n2)C[C@@H](N)[C@@H]1O [Example 4, N-(4-((1R,3R,4R,5S)-3-amino-4-hydroxy-5-methylcyclohexyl)pyridin-3-yl)-6-(2,6-difluoro-4-hydroxyphenyl)-5-fluoropicolinamide] | 8.70 | 9.00
C[C@H]1C[C@@H](c2ccncc2NC(=O)c2ccc(F)c(-c3cc(O)ccc3F)n2)C[C@@H](N)[C@@H]1O [Example 5, N-(4-((1R,3R,4R,5S)-3-amino-4-hydroxy-5-methylcyclohexyl)pyridin-3-yl)-5-fluoro-6-(2-fluoro-5-hydroxyphenyl)picolinamide] | 8.05 | 8.52
N[C@H]1CCC[C@@H](c2ccncc2NC(=O)c2cccc(-c3cc(O)ccc3F)n2)C1 [Example 7, N-(4-((1R,3S)-3-aminocyclohexyl)pyridin-3-yl)-6-(2-fluoro-5-hydroxyphenyl)picolinamide] | 8.70 | 9.00
N[C@H]1CCC[C@@H](c2ccncc2NC(=O)c2cccc(-c3c(F)cc(O)cc3F)n2)C1 [Example 8, N-(4-((1R,3S)-3-aminocyclohexyl)pyridin-3-yl)-6-(2,6-difluoro-4-hydroxyphenyl)picolinamide] | 8.70 | 9.00
N[C@H]1CCC[C@@H](c2ccncc2NC(=O)c2ccc(F)c(-c3ccc(O)cc3F)n2)C1 [Example 9, N-(4-((1R,3S)-3-aminocyclohexyl)pyridin-3-yl)-5-fluoro-6-(2-fluoro-4-hydroxyphenyl)picolinamide] | 8.70 | 9.00
CC1(C)C[C@H](N)C[C@H](c2ccncc2NC(=O)c2ccc(F)c(-c3ccc(O)cc3F)n2)C1 [Example 10, N-(4-((1R,5R)-5-amino-3,3-dimethylcyclohexyl)pyridin-3-yl)-5-fluoro-6-(2-fluoro-4-hydroxyphenyl)picolinamide] | 8.22 | 9.00
Cc1ccc(F)c(-c2nc(C(=O)Nc3cnccc3[C@H]3C[C@@H](N)CC(C)(C)C3)ccc2F)c1F [Example 11, N-(4-((1R,5R)-5-amino-3,3-dimethylcyclohexyl)pyridin-3-yl)-6-(2,6-difluoro-3-methylphenyl)-5-fluoropicolinamide] | 8.40 | 9.00

SMILES | pIC50 [1] | pIC50 [2]
Cc1ccc(F)c(-c2cccc(C(=O)Nc3cnccc3N3C[C@@H](N)[C@H](O)[C@@H](C)C3)n2)c1F [Example 13, N-(4-((3R,4R,5S)-3-amino-4-hydroxy-5-methylpiperidin-1-yl)pyridin-3-yl)-6-(2,6-difluoro-3-methylphenyl)picolinamide] | 8.52 | 9.00
C[C@H]1CN(c2ccncc2NC(=O)c2ccc(F)c(C3CCCCC3)n2)C[C@@H](N)[C@@H]1O [Example 16, N-(4-((3R,4R,5S)-3-amino-4-hydroxy-5-methylpiperidin-1-yl)pyridin-3-yl)-6-cyclohexyl-5-fluoropicolinamide] | – | 9.00
C[C@H]1CN(c2ccncc2NC(=O)c2ccc(F)c(-c3ccccc3F)n2)C[C@@H](N)[C@@H]1O [Example 25, N-(4-((3R,4R,5S)-3-amino-4-hydroxy-5-methylpiperidin-1-yl)pyridin-3-yl)-5-fluoro-6-(2-fluorophenyl)picolinamide] | – | 9.00
C[C@H]1CN(c2ccncc2NC(=O)c2cccc(-c3c(F)cccc3F)n2)C[C@@H](N)[C@@H]1O [Example 26, N-(4-((3R,4R,5S)-3-amino-4-hydroxy-5-methylpiperidin-1-yl)pyridin-3-yl)-6-(2,6-difluorophenyl)picolinamide] | – | 9.00
C[C@@H]1C[C@H](N)C[C@H](c2ccncc2NC(=O)c2nc(-c3c(F)cc(O)cc3F)ccc2F)C1 [Example 42, N-(4-((1R,3S,5S)-3-amino-5-methylcyclohexyl)pyridin-3-yl)-6-(2,6-difluoro-4-hydroxyphenyl)-3-fluoropicolinamide] | – | 9.00
COc1ccc(F)c(-c2nc(C(=O)Nc3cnccc3[C@@H]3C[C@H](C)C[C@H](N)C3)ccc2F)c1 [Example 45, N-(4-((1R,3S,5S)-3-amino-5-methylcyclohexyl)pyridin-3-yl)-5-fluoro-6-(2-fluoro-5-methoxyphenyl)picolinamide] | – | 9.00
C[C@@H]1C[C@H](N)C[C@H](c2ccncc2NC(=O)c2ccc(F)c([C@H]3CC[C@@H](O)CC3)n2)C1 [Example 54, N-(4-((1R,3S,5S)-3-amino-5-methylcyclohexyl)pyridin-3-yl)-5-fluoro-6-((1s,4s)-4-hydroxycyclohexyl)picolinamide] | – | 8.52
C[C@@H]1C[C@H](N)C[C@H](c2ccncc2NC(=O)c2ccc(F)c([C@H]3CC[C@H](O)CC3)n2)C1 [Example 55, N-(4-((1R,3S,5S)-3-amino-5-methylcyclohexyl)pyridin-3-yl)-5-fluoro-6-((1r,4r)-4-hydroxycyclohexyl)picolinamide] | – | 8.52
Nc1cc(F)c(-c2c(F)cccc2F)nc1C(=O)Nc1cnccc1[C@@H]1CC[C@H](O)[C@H](N)C1 [Example 65, 3-amino-N-(4-((1R,3R,4S)-3-amino-4-hydroxycyclohexyl)pyridin-3-yl)-6-(2,6-difluorophenyl)-5-fluoropicolinamide] | – | 9.00
Nc1ccc(-c2c(F)cccc2F)nc1C(=O)Nc1cnccc1[C@@H]1CC[C@H](O)[C@@H](N)C1 [Example 104, 3-amino-N-(4-((1R,3S,4S)-3-amino-4-hydroxycyclohexyl)pyridin-3-yl)-6-(2,6-difluorophenyl)picolinamide] | – | 8.52
Nc1ccc(-c2c(F)cccc2F)nc1C(=O)Nc1cnccc1C1=CC(N)CCC1 (stereo not drawn) [Example 107, 3-amino-N-(4-(3-aminocyclohex-1-enyl)pyridin-3-yl)-6-(2,6-difluorophenyl)picolinamide] | – | 8.70
COc1cc(F)c(-c2cccc(C(=O)Nc3cnccc3[C@H]3C[C@@H](N)C[C@@H](C(F)(F)F)C3)n2)c(F)c1 [Example 109, N-(4-((1R,3R,5S)-3-amino-5-(trifluoromethyl)cyclohexyl)pyridin-3-yl)-6-(2,6-difluoro-4-methoxyphenyl)picolinamide] | – | 9.00
C[C@H]1C[C@@H](c2ccncc2NC(=O)c2nc(-c3c(F)cccc3F)c(F)cc2N)C[C@@H](O)[C@@H]1O [Example 121, 3-amino-6-(2,6-difluorophenyl)-N-(4-((1R,3R,4R,5S)-3,4-methylcyclohexyl)pyridin-3-yl)-5-fluoropicolinamide] | 8.70 | –
CC1(C)C[C@H](N)C[C@H](c2ccncc2NC(=O)c2ccc(F)c(-c3c(F)cc(O)cc3F)n2)C1 [Example 122, N-(4-((1R,5R)-5-amino-3,3-dimethylcyclohexyl)pyridin-3-yl)-6-(2,6-difluoro-4-hydroxyphenyl)-5-fluoropicolinamide] | – | 9.00
C[C@H]1C[C@@H](c2ccncc2NC(=O)c2ccc(F)c(-c3c(F)cccc3F)n2)C[C@@H](N)[C@H]1F [Example 139, N-(4-((1R,3R,4S,5S)-3-amino-4-fluoro-5-methylcyclohexyl)-pyridin-3-yl)-6-(2,6-difluorophenyl)-5-fluoropicolinamide] | 8.40 | –
